From publication PMC5573404, “An aldo-keto reductase is responsible for Fusarium toxin-degrading activity in a soil Sphingomonas strain” (Scientific Reports, 2017) come the findings set out here.

The assay has as its system AKR18A1. The experiment in a line: HPLC substrate decrease, Michaelis-Menten fit. The format is biochemical, Sphingomonas sp. S3-4. The conditions noted are these: 45 °C.

The Km is the substrate concentration at which the rate is half of its maximum. Take `NC(=O)C1=CN([C@@H]2O[C@H](COP(=O)(O)OP(=O)(O)OC[C@H]3O[C@@H](n4cnc5c(N)ncnc54)[C@H](O)[C@@H]3O)[C@@H](O)[C@H]2O)C=CC1` [NADH]: the Km (reduction of 3-oxo-DON, sodium phosphate pH 7.0, printed unit mM is doubtful, probably a misprint for μM (assays use 0.2 mM NADH)) is 78 ± 28 mM.

For the compound `NC(=O)c1ccc[n+]([C@@H]2O[C@H](COP(=O)(O)OP(=O)(O)OC[C@H]3O[C@@H](n4cnc5c(N)ncnc54)[C@H](OP(=O)(O)O)[C@@H]3O)[C@@H](O)[C@H]2O)c1` [NADP^+], where the note is “oxidation of DON, glycine-NaOH pH 10.6”, the Km stood at 0.48 ± 0.07 mM.
